Test results published in patent publication US4769383A, “Dioxonaphthotriazoles having antiallergic activity” (Beecham Group p.l.c., priority 1981, dated 1988).

What was measured:
[1] = system: rat passive peritoneal anaphylaxis; test: Rat Passive Peritoneal Anaphylaxis (PPA); assay type: in vivo; conditions: Mean ± SEM, 5-7 rats per group; for Dye concentration in peritoneal fluid as % of mean of controls: Pontamine Sky Blue
Protocol: (§1) The compounds were tested for their ability to:
(a) inhibit rat passive peritoneal anaphylaxis; and
(§2) Charles River Sprague Dawley male rats of 250-300 g. and Dunkin Hartley male white guinea pigs of 250-300 g. were used.
The method has been described previously. (Ross, Janet W., Smith, H. and Spicer, Barbara A. Increased vascular permeability during passive peritoneal anaphylaxis in the rat. Int. Arch. Allergy appl. Immun., 51, 226, 1976).
Rats were sensitised by giving an intraperitoneal injection of 0.5 ml of Bordetella pertussis vaccine (4×10^10 organisms/ml Burroughs Wellcome, London) and a subcutaneous injection of 0.5 ml of an emulsion of 100 mg of ovalbumin (chicken egg albumin, crystallised and lyophilised, grade 3, Sigma, London) in 2 ml of isotonic saline and 3 ml of Freud's incomplete adjuvant (Difco Laboratories, Michigan, USA).
The rats were bled by cardiac puncture, on day 18, the blood was pooled, and the serum separated, stored at -20° C. and thawed only before use.
Rats were each given an intraperitoneal injection of 2 ml of a 1:5 dilution of the rat anti-serum in isotonic saline. Two hours later 0.3 ml of a 5% solution of Pontamine Sky Blue (Raymond A. Lamb, London) in isotonic saline was injected intravenously, followed by an intraperitoneal injection of the test compound in 1 ml of saline; (control rats received 1 ml of saline); followed 30 seconds later by an intraperitoneal injection of 5 ml of Tyrode's solution containing 50 μg/ml heparin and 0.4 mg/ml of ovalbumin. The concentrations of the compounds were quoted as those in the 6 ml of fluid injected intraperitoneally. Exactly five minutes after challenge the rats were stunned and bled and their peritoneal fluids were collected by opening their peritoneal cavities over funnels into polycarbonate tubes in ice. The supernatants were separated from the cellular residue by centrifuging at 150 g. for five minutes and were retained for assay of dye and histamine. Any samples obviously contaminated with blood were not used for estimation of dye. Groups of at least five rats were used for each dose of compound and the treatments were randomised.
Dye was assayed within two hours by measurement of optical density (OD) at 625 nm.
For histamine assay 0.5 ml samples of the supernatants were added to 1 ml volumes of 12% trichloracetic acid and stored at -20° C. The deproteinised samples were assayed using an automated spectrofluorimetric system (Technicon Autoanalyser) by a method similar to that of Evans, D. P., Lewis, J. A. and Thomson, D. S.: (An automated fluorimetric assay for the rapid determination of histamine in biological fluids. Life Sci. 12, 327, 1973).

[2] = system: slow reacting substance of anaphylaxis (SRS-A), isolated guinea pig ileum; test: SRS-A Antagonism on Guinea Pig Ileum; conditions: isolated guinea pig ileum strips; Tyrode's solution with atropine 5×10^-7 M and mepyramine 10^-6 M; rat SRS-A; read-out: Approximate concentration to give a 50% inhibition of a less than maximal response to SRS-A
Protocol: as §1
(b) antagonise the spasmogenic effects of slow reacting substance of anaphylaxis, SRS-A, on isolated guinea pig ileum.
as §2
The compounds have been evaluated as direct antagonists of slow reacting substance of anaphylaxis (SRS-A) by assay using the isolated guinea pig ileum.
SRS-A rat was obtained from the peritoneal cavity of the rat after passive peritoneal anaphylaxis by a method based on that of R. P. Orange, D. J. Stechschulte and K. F. Austen, J. Immunology, 105, 1087 (1970) as described by J. W. Ross, H. Smith and B. A. Spicer 1976, Increased vascular permeability during passive peritoneal anaphylaxis in the rat. Int. Arch. Allergy appl. 51, 226. The sensitising serum containing antibody was produced in rats as described by J. W. Ross et. al., ibid.
2 ml of a 1 in 5 dilution of the sensitising serum was injected by the peritoneal route into recipient rats and after 2 hours 5 ml of Tyrode's solution containing 0.4 mg/ml ovalbumin (Sigma Grade III) and 50 μg/ml heparin was injected by the same route. Five minutes after challenge the rats were stunned and bled and the peritoneal fluids collected into polycarbonate tubes in ice. After centrifugation at 150 g. for five minutes the supernatants were combined, heated in a boiling water bath for five minutes, cooled and stored at -20° C. The combined peritoneal fluids contained SRS-A and were used in the antagonism studies.
The SRS-A arrays were carried out on isolated strips of guinea pig ileum in Tyrode's solution containing atropine 5×10^-7 M and mepyramine 10^-6 M as described by W. E. Brocklehurst, J. Physiology, 151, 416 (1960).
The activity of the antagonists was determined by their ability to reduce submaximal responses induced by SRS-A. The antagonists were added to the 4 ml bath in 0.1 ml volumes in aqueous solution half a minute before the addition of SRS-A and were present during induced contraction.

Row | IC50 [2] | SMILES | Histamine concentration in peritoneal fluid as % of mean of controls ([1]; 2 × 10^-5 M injected i.p.) | Dye concentration in peritoneal fluid as % of mean of controls ([1]; 2 × 10^-5 M injected i.p.) | Histamine concentration in peritoneal fluid as % of mean of controls ([1]; 2 × 10^-6 M injected i.p.) | Dye concentration in peritoneal fluid as % of mean of controls ([1]; 2 × 10^-6 M injected i.p.) | Histamine concentration in peritoneal fluid as % of mean of controls ([1]; 2 × 10^-7 M injected i.p.) | Dye concentration in peritoneal fluid as % of mean of controls ([1]; 2 × 10^-7 M injected i.p.) | Histamine concentration in peritoneal fluid as % of mean of controls ([1]; 2 × 10^-8 M injected i.p.) | Dye concentration in peritoneal fluid as % of mean of controls ([1]; 2 × 10^-8 M injected i.p.)
1 | ~400 nM | CCCc1c(OCCCOc2ccc3c(c2)C(=O)c2nn[nH]c2C3=O)ccc(C(C)=O)c1O [Example 1, 6-[3-(4-Acetyl-3-hydroxy-2-n-propylphenoxy)propoxy]4,9-dihydro-4,9-dioxo-1H-naphtho[2,3-d]-v-triazole] | 10 ± 1 % of mean of controls | 32 ± 5 % of mean of controls | 27 ± 8 % of mean of controls | 58 ± 8 % of mean of controls | 57 ± 11 % of mean of controls | 63 ± 5 % of mean of controls |  | 
2 | 1000 to 10000 nM | CCCc1c(OCCCOc2cccc3c2C(=O)c2nn[nH]c2C3=O)ccc(C(C)=O)c1O [Example 3, 5-[3-(4-Acetyl-3-hydroxy-2-n-propylphenoxy)-propoxy]4,9-dihydro-4,9-dioxo-1H-naphtho[2,3-d]-v-triazole] | 25 ± 3 % of mean of controls | 57 ± 4 % of mean of controls | 62 ± 11 % of mean of controls | 94 ± 8 % of mean of controls |  |  |  | 
3 | 100 to 250 nM | CCCc1c(OCC(O)COc2ccc3c(c2)C(=O)c2nn[nH]c2C3=O)ccc(C(C)=O)c1O (centres unmarked) [Example 4, 6-[3-(4-Acetyl-3-hydroxy-2-n-propylphenoxy)2-hydroxypropoxy]-4,9-dihydro-4,9-dioxo-1H-naphtho[2,3-d]-v-triazole] |  |  |  |  | 38 ± 4 % of mean of controls | 58 ± 4 % of mean of controls | 64 ± 11 % of mean of controls | 72 ± 11 % of mean of controls
